Measurements reported in paper PMC7932537, “Quantitative profiling of protease specificity” (PLoS Computational Biology, 2021).

Tested on: MMP-2
Experiment: Substrate phage display with NGS: relative probability (RP) of P3-P1' tetramer clusters;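 on relative probability (RP): ratio of tetramer probability after protease selection to that in naive phage library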
Type: biochemical, human
Conditions: for avg_RP: MMP2 - no binning
[1] = average relative probability of the P3-P1' tetramer, redundant tetramers have been averaged out
[2] = average relative probability of the tetramer, redundant tetramers averaged out
[3] = average relative probability (RP) of the P3-P1' tetramer, redundant tetramers have been averaged out

Row | Substance | avg_RP [1] | avg_RP [2] | other results
1 | QMSL | 0.2763 | – | –
2 | QQGL | – | 6.4014 | –
3 | QQNL | 4.2466 | – | –
4 | RIIG | – | – | relative probability (RP) (tetramer annotation of MMP-2 cleavage sites in physiologic substrates from MEROPS): 0.08
5 | RRNL | 6.1579 | – | –
6 | SANL | – | 23.7816 | –
7 | SARL | – | – | avg_RP [3]: 4.5839
8 | SASL | – | – | avg_RP [3]: 17.7881
9 | SAWL | 18.9346 | – | –
10 | SAYL | – | – | avg_RP [3]: 11.6614
11 | SFAL | 0.5631 | – | –
12 | SFNL | 1.0952 | – | –
13 | SGAL | – | 13.4712 | –
14 | SGAY | – | – | avg_RP [3]: 6.7841
15 | SGEL | 0.1149 | – | –
16 | SGFL | 6.5712 | – | –
17 | SGHL | – | 1.458 | –
18 | SGML | 1.3118 | – | –
19 | SGNL | 12.7361 | – | –
20 | SGPL | 2.1571 | – | –
21 | SGQL | 1.0305 | – | –
22 | SGRL | 0.7262 | – | –
23 | SGSL | 7.2251 | – | –
24 | SHGL | – | 0.2009 | –
25 | SLAL | – | 6.0193 | –

Row | Substance | avg_RP [1] | avg_RP [2] | other results
26 | SLAW | – | 18.2943 | –
27 | SLNL | – | 3.3019 | –
28 | SLPL | 8.6373 | – | –
29 | SLRL | – | – | avg_RP [3]: 0
30 | SMNL | 2.1645 | – | –
31 | SMRL | 0 | – | –
32 | SMYL | – | – | avg_RP [3]: 1.2279
33 | SNWL | – | 9.68 | –
34 | SQHL | – | – | avg_RP [3]: 0.2367
35 | SQSL | 5.003 | – | –
36 | SRAL | – | 12.4506 | –
37 | SRGL | – | 6.1644 | –
38 | SWAW | 0.0563 | – | –
39 | SWGL | – | 0.1389 | –
40 | SWPL | – | – | avg_RP [3]: 0.4201
41 | SWSL | 0.0547 | – | –
42 | SYAL | 4.7967 | – | –
43 | SYNL | – | 6.0933 | –
44 | SYPL | – | – | avg_RP [3]: 1.464
45 | SYWL | 0.9791 | – | –
46 | TAWL | – | – | avg_RP [3]: 24.7743
47 | TFHL | – | 0.1298 | –
48 | THHL | – | – | avg_RP [3]: 0.3701
49 | TLAL | – | 1.9537 | –
50 | TLHL | 2.4714 | – | –

Row | Substance | avg_RP [1] | avg_RP [2] | other results
51 | TLNL | 2.7643 | – | –
52 | TMAL | – | – | avg_RP [3]: 0.4939
53 | TMWL | – | – | avg_RP [3]: 5.1973
54 | TNWL | – | 15.348 | –
55 | TQHL | 2.9223 | – | –
56 | TQNL | – | 7.2378 | –
57 | TRNL | 12.3403 | – | –
58 | TRWL | – | 15.1455 | –
59 | TRWY | – | 6.7229 | –
60 | TWAL | 0.4366 | – | –
61 | TWRL | – | – | avg_RP [3]: 0
62 | TWSM | – | – | avg_RP [3]: 0
63 | TYAL | 5.848 | – | –
64 | VAAV | – | 19.031 | –
65 | VAFL | – | – | avg_RP [3]: 20.6554
66 | VAKM | – | 17.3627 | –
67 | VANW [P3-P1' tetramer cluster] | – | – | relative_probability (tetramer clusters unique to the MMP-2 selectome, MMP-2 RP): 29.92
68 | VAPL | 30.036 | – | –
69 | VAWL | – | – | avg_RP [3]: 32.2185
70 | VAYL | – | 26.5348 | –
71 | VDQL | – | – | avg_RP [3]: 0.0432
72 | VDYL | 1.426 | – | –
73 | VEAL | – | 10.756 | –
74 | VELL | 0 | – | –
75 | VEML | – | 2.1238 | –

Row | Substance | avg_RP [1] | avg_RP [2] | other results
76 | VEPL | – | – | avg_RP [3]: 2.5219
77 | VEYL | 5.3014 | – | –
78 | VFAL | 11.8827 | – | –
79 | VFEL | – | 0.8652 | –
80 | VFGL | 12.5523 | – | –
81 | VFHM | 5.168 | – | –
82 | VFNL | 14.497 | – | –
83 | VFRL | – | – | avg_RP [3]: 1.3631
84 | VFSI | – | 0.2237 | –
85 | VFSL | – | 9.6313 | –
86 | VFSM | 2.2653 | – | –
87 | VFWM | 10.3215 | – | –
88 | VFWY | – | 6.3003 | –
89 | VGAL | – | 32.8382 | –
90 | VGHL | – | – | avg_RP [3]: 31.6783
91 | VGML | 28.5913 | – | –
92 | VGVL | – | – | avg_RP [3]: 7.4169
93 | VHAL | – | – | avg_RP [3]: 19.753
94 | VHHL | – | 14.1228 | –
95 | VHML | – | – | avg_RP [3]: 3.9806
96 | VHQM | 0 | – | –
97 | VHRL | 1.5304 | – | –
98 | VHSF | 0.0855 | – | –
99 | VIAL | 8.0877 | – | –
100 | VKFL | – | – | avg_RP [3]: 9.5539

Row | Substance | avg_RP [1] | avg_RP [2] | other results
101 | VKGM | – | 15.5854 | –
102 | VKHL | 14.8595 | – | –
103 | VKWL | – | 19.0036 | –
104 | VLAL | 13.5229 | – | –
105 | VLFL | – | – | avg_RP [3]: 1.6486
106 | VLHL | 19.5348 | – | –
107 | VLMM | 2.7364 | – | –
108 | VLNL | – | 18.9065 | –
109 | VLNM | 19.025 | – | –
110 | VLPL | – | – | avg_RP [3]: 20.3086
111 | VLSL | – | 10.8506 | –
112 | VLWL | 11.1539 | – | –
113 | VMGI | – | 12.4242 | –
114 | VMKL | – | – | avg_RP [3]: 0.3599
115 | VMLL | 0.4692 | – | –
116 | VMLM | 0.5571 | – | –
117 | VMNL | 18.6016 | – | –
118 | VMNY | – | 12.7895 | –
119 | VMRL | – | – | avg_RP [3]: 0.4281
120 | VMRM | 0.0611 | – | –
121 | VMSL | 14.6983 | – | –
122 | VMYL | – | – | avg_RP [3]: 5.0318
123 | VNFL | – | – | avg_RP [3]: 7.2989
124 | VNHL | – | 12.8499 | –
125 | VNLL | 0.5682 | – | –

Row | Substance | avg_RP [1] | avg_RP [2] | other results
126 | VNNL | 17.6966 | – | –
127 | VNRI | – | – | avg_RP [3]: 0
128 | VNSL | 13.3292 | – | –
129 | VNWM | – | 16.277 | –
130 | VNYL | 8.4267 | – | –
131 | VQHL | – | 22.9738 | –
132 | VQLL | 8.0197 | – | –
133 | VRAH | – | 14.8064 | –
134 | VRAI | – | 26.2338 | –
135 | VRAL | – | 30.4312 | –
136 | VRAV | – | 10.114 | –
137 | VRDL | – | 21.7219 | –
138 | VRFL | – | 15.0438 | –
139 | VRFM | – | – | avg_RP [3]: 15.2846
140 | VRGL | – | 29.092 | –
141 | VRGM | – | 26.4376 | –
142 | VRGV | – | 2.6159 | –
143 | VRHI | – | – | avg_RP [3]: 19.1429
144 | VRHL | – | 25.4239 | –
145 | VRHV | – | 9.5401 | –
146 | VRKL | – | 0 | –
147 | VRLL | – | 4.002 | –
148 | VRML | 15.9125 | – | –
149 | VRMM | – | 13.0027 | –
150 | VRNL | – | – | avg_RP [3]: 29.2567

Row | Substance | avg_RP [1] | avg_RP [2] | other results
151 | VRNV | – | 5.0406 | –
152 | VRNW | 17.7682 | – | –
153 | VRQL | – | 16.7722 | –
154 | VRSI | – | 11.7832 | –
155 | VRSL | 12.3051 | – | –
156 | VRWS | – | 8.0593 | –
157 | VRWY | – | 17.3102 | –
158 | VRYL | – | 18.3724 | –
159 | VSEL | 24.0996 | – | –
160 | VSFL | – | 5.9184 | –
161 | VSYL | 20.2936 | – | –
162 | VVWY | – | 9.9375 | –
163 | VWAI | – | 3.2193 | –
164 | VWAL | 12.7502 | – | –
165 | VWGI | 3.0103 | – | –
166 | VWGL | – | – | avg_RP [3]: 12.3495
167 | VWHI | – | 1.9312 | –
168 | VWHL | – | – | avg_RP [3]: 10.1663
169 | VWHV | 0 | – | –
170 | VWKL | – | – | avg_RP [3]: 0.2836
171 | VWLL | 0.5351 | – | –
172 | VWML | – | 1.4023 | –
173 | VWNI | 4.0144 | – | –
174 | VWNL | – | 14.4124 | –
175 | VWNY | – | 4.6964 | –

Row | Substance | avg_RP [1] | avg_RP [2] | other results
176 | VWPL | – | 5.2943 | –
177 | VWRL | – | – | avg_RP [3]: 0.9525
178 | VWWQ | 0.2844 | – | –
179 | VWYL | 3.6672 | – | –
180 | VYAL | – | – | avg_RP [3]: 19.6906
181 | VYAW | 0.6193 | – | –
182 | VYDL | 1.2439 | – | –
183 | VYGL | – | 17.3788 | –
184 | VYLL | – | 1.2276 | –
185 | VYML | 5.0943 | – | –
186 | VYNL | – | 19.1818 | –
187 | VYRL | – | – | avg_RP [3]: 5.0832
188 | VYSL | 16.838 | – | –
189 | VYWL | – | 16.4375 | –
190 | VYWM | – | 12.492 | –
191 | WAHI | – | 0.0575 | –
192 | WAHL | 7.453 | – | –
193 | WAPL | 23.9342 | – | –
194 | WASI | – | 12.5247 | –
195 | WASM | – | – | avg_RP [3]: 16.5169
196 | WESL | 0.6249 | – | –
197 | WFAL | – | 0 | –
198 | WFNL | – | 0 | –
199 | WGNL | 14.7295 | – | –
200 | WGNM | 3.7232 | – | –
